From PubChem BioAssay (NCI)
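Each compound was tested at five concentrations against cells in 96-well plates for 48 hours. Here, GI50 denotes the concentration required for 50% inhibition of growth. TGI: total growth inhibition.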

Legend:
Assay in all cases: DTP human tumour cell line panel, 48 h
[1] = tested on: HS 578T breast
[2] = tested on: MDA-MB-231 breast
[3] = tested on: NCI/ADR-RES ovarian

| SMILES | GI50 [1] [µM] | TGI [1] [µM] | GI50 [2] [µM] | TGI [2] [µM] | GI50 [3] [µM] | TGI [3] [µM] |
| --- | --- | --- | --- | --- | --- | --- |
| CCCN(CCC)c1ccc(/C=N/NC(=O)c2cccnc2)c(Cl)c1 | 14.3 | 47.3 | 12.4 | 28.5 | 5.78 | 48.4 |
| COc1ccc2c(c1)CCC1C2CC[C@]2(C)/C(=N/OC(=O)Cc3ccccc3)CCC12 (stereo partly drawn) | 28.6 | 70 | 17.3 | 38.6 | 20.9 | 39.8 |
| COC(=O)C1=C(C(=O)OC)C23C=C(C)C1C2=C(C)C1(CC1)[C@@](C)(O)C3=O (stereo partly drawn) | 1.37 | 7.61 | 0.309 | 1.56 | 0.303 | 4.24 |
| NS(=O)(=O)c1ccc(N2N=C3c4ccccc4CC3C2c2ccc(Cl)cc2)cc1 (stereo not drawn) | 4.61 | 19.2 | 2.89 | 8.24 | 10.3 | 38.5 |
| COc1ccc(NC(=O)c2sc3nc(C)c(C(O)c4ccccc4)cc3c2N)cc1 (stereo not drawn) | 1.73 | 6.86 | 2.96 | > 100 | 2.55 | 9.03 |
| COc1ccc([N+](=O)[O-])c(S(=O)(=O)c2ccc(Cl)cc2)n1 | 13 | 51.1 | 2.83 | 7.43 | 4.93 | > 100 |
| Nc1c(C(=O)Nc2ccccc2Cl)sc2nc3c(cc12)CCCCCC3 | 2.9 | 14.6 | 2.24 | 14.1 | 2.82 | 25.4 |
| CCC(=C/[C@H](C)C/C=C/C(C)=C/[C@@H](C)C(=O)[C@@H](C)[C@H](O)[C@@H](C)CC)/C=C/[C@H]1OC(=O)C=C[C@H]1C | < 0.01 | 0.438 | < 0.01 | 1.5 | < 0.01 | 1.39 |
| COc1cc(/C=C2\COc3ccc(O)c(O)c3C2=O)cc(OC)c1 | 2.66 | 17.1 | 2.47 | 10.6 | 2.24 | 46.5 |
| COc1cc2nc(Nc3cccc(F)c3)nc(Nc3cc(C)[nH]n3)c2cc1OC | 1.86 | 4.01 | 1.74 | 3.42 | 1.6 | 3.64 |
| C=C1C(=O)O[C@H]2[C@H]1CC/C(COC(=O)NCc1c[nH]c3ccc(Cl)cc13)=C\CC[C@@]1(C)O[C@@H]21 | 2.45 | 6.82 | 1.66 | 3.3 | 2.84 | 11.3 |
| COC1=CC(c2ccc[nH]2)=N/C1=C\c1[nH]c(C)c(C(=O)CCCCC(=O)Nc2ccccc2)c1C | – | – | 0.396 | 1.95 | 1.89 | 3.69 |
| Cc1nc(NC(=O)CCCN2C(=O)c3cccc4cccc(c34)C2=O)sc1C(=O)Nc1cc(C(=O)NCCCN(C)C)n(C)c1 | > 100 | > 100 | > 100 | > 100 | > 100 | > 100 |
| COc1ccc(/C=C/c2n[nH]c3ccc(N4CCOC4=O)cc23)cc1 | 3.23 | 9.59 | 2.98 | 9.8 | 2.99 | 40.2 |
| Cc1ccc(S(=O)(=O)N2CCc3ccc(O)c4c3C2Cc2cc(Cl)ccc2-4)cc1 (stereo not drawn) | 0.889 | 6.68 | 1.21 | 4.74 | 0.819 | 2.27 |
| COC1=CC(c2ccc[nH]2)=N/C1=C\c1ccc[nH]1 | 0.292 | 3.56 | 0.11 | 14.6 | 0.304 | 13.8 |
| COc1ccc(-c2ccc(C3CC(c4ccc(Cl)cc4)=NN3)o2)c([N+](=O)[O-])c1 (stereo not drawn) | > 100 | > 100 | > 100 | > 100 | > 100 | > 100 |
| NS(=O)(=O)c1ccc(CCN=C=S)cc1 | 3.21 | 15.5 | 2.03 | 4.4 | 3.2 | 11.3 |
| COc1cc(-c2cc(-c3nc4ccc(Cl)cc4[nH]3)[nH]n2)cc(OC)c1OC | 3.58 | 45.5 | 3.94 | 24.3 | – | – |
| C=C(C)[C@@H]1CC[C@]2(C)[C@H](CC[C@@H]3[C@H]4[C@H]5OC[C@@]4(CCC5(C)C)CC[C@]32C)[C@@]1(C)CCCN | 2.1 | 4.61 | 1.84 | 3.54 | 1.95 | 3.89 |
| COc1ccc2c(c1)CC[C@@H]1[C@@H]2CC[C@]2(C)C(c3ccco3)=C(C=O)C[C@@H]12 | 23.2 | 60 | 10.8 | 30.7 | 11.5 | 64.6 |
| COc1ccccc1CNCCCN1C(=O)c2ccc3c4c(ccc(c24)C1=O)C(=O)N(CCCNCCCN)C3=O | 1.2 | 5.82 | 1.41 | 9.72 | 1.16 | 5.71 |
